From patent publication US5707815A, “Mammalian monocyte chemoattractant protein receptors and assays using them” (Regents of the University of California, priority 1995, dated 1998)

Legend:
MCP-1RB receptor = format: cell-based, human
Experimental: To investigate inhibition of adenylyl cyclase activity, HEK-293 cells stably-transfected with the MCP-1RB receptor and the MIP-1α/RANTES receptor were grown until confluent in 24-well tissue culture dishes and labeled overnight with 2 μCi/ml of [^3 H]adenine (25-30 Ci/mmol) (New England Nuclear, Boston, Mass.) in MEM-EBSS supplemented with 10% FCS. The next day, the cells were washed by incubation at room temperature with 0.5 ml of serum-free MEM-EBSS media supplemented with 10 mM HEPES, 1 mg/ml BSA, and 1 mM IBMX (3-isobutyl-1-methylxanthine) for 5 min. […] The incubation was terminated by replacement of the media with 1 ml of ice-cold 5% TCA (trichloroacetic acid), 1 mM cAMP, and 1 mM ATP (Sigma). Following incubation at 4° C. for 30 min, the labeled [^3 H]ATP and [3H]cAMP pools were separated and quantitated by chromatography on Dowex 50W (200-400 mesh, hydrogen form, from Sigma) and neutral alumina columns (also from Sigma), as described in Hung, J. Biol. Chem. 267:20831-34 (1992) and Wong, Nature 351: 63-65 (1991). The 1 ml acid supernatant was loaded onto a 1-ml Dowex 50W column and the ATP pool eluted with 3 ml of H2 O. The Dowex 50W columns were then placed over 1-ml alumina columns, and 10 ml of H2 O was added to the Dowex resin and the eluant allowed to drop directly onto the neutral alumina. The cAMP pool was then eluted directly from the alumina with 5 ml of 0.1M imidazole/0.01mM sodium azide. The [^3 H]ATP and [^3 H]cAMP fractions were counted by liquid scintillation spectroscopy. The cAMP pool for each sample was normalized to its own ATP pool and expressed as a ratio by the equation (cAMP cpms/ATP cpms)×100. In each experiment full dose-response curves were generated and expressed as a percent of the forskolin control.
Inhibition of MCP-1RB receptor activation by bordetella pertussis toxin was investigated. Pertussis toxin (List Biological Labs, Inc., Campbell, Calif.) was dissolved in 0.01M sodium phosphate, pH 7.0, 0.05M sodium chloride and diluted into normal serum containing media at final concentrations of 0.1 ng/ml to 100 ng/ml, and incubated with cells overnight (14-16 h) at 37° C. The conditions of the Pertussis toxin treatment of the 293 cells were identical for calcium fluorimetric and adenylyl cyclase experiments. In the adenylyl cyclase experiments, the Pertussis toxin was added at the same time as [^3 H]adenine.
Dose response curves generated in the calcium fluorimetric and adenylyl cyclase inhibition assays were fit by a nonlinear least squares program to the logistic equation:
Effect=max effect/[1+(EC50 /(agonist)^n)]
where n and EC50 represent the Hill coefficient and the agonist concentration that elicited a half-maximal response, respectively, and were derived from the fitted curve. Curve fitting was done with the computer program "Prism" (by Graph Pad, San Diego, Calif.). Results represent the mean ±SE. The 95% confidence intervals (CI) of the EC50 and IC50 values, when given, were calculated from the log EC50 and IC50 values, respectively.

MM6 cells = test: MCP-1 induced calcium flux in MM6 cells (calcium efflux assay); format: cell-based, human
Experimental: (§1) Because monocytes are difficult to isolate in usable quantity and express less than 2000 high affinity MCP-1 binding sites per cell, a cultured cell line that responded well to MCP-1 had to be identified. Using the calcium effiux assay as described in Vu, Cell 64:1057-68(1991), MCP-1 induced calcium fluxes in various cell lines were measured. […] In contrast, a dose-dependent calcium flux was detected in MM6 cells, with half maximal stimulation at 4nM MCP-1.

[1] = test system: human erythroleukemia (HEL) cells; test: MCP-1 induced calcium flux in HEL cells; format: cell-based
Experimental: as §1

monocyte = details: Yoshimura, J. Immunol. 145:292-97 (1990); cited from earlier work
MCP-1 receptor = test: Total inositol phosphate accumulation in MCP-1 receptor transfected 293 cells; format: cell-based, human; details: 293 cells stably expressing recombinant MCP-1 receptor
Experimental: Inositol (1,4,5)-triphosphate (IP3) mobilizes intracellular calcium in response to activation of a wide spectrum of receptors, including many seven-transmembrane-domain receptors. Hung, J. Ceil. Biol. 116:827-32 (1992); Putney, Trends Endocrinol. Metab. 5:256-60 (1994). To investigate this mobilization, total inositol phosphate accumulation was determined as described in Hung, J. Cell Biol. 116:827-32 (1992). HEK-293 cells were grown until confluent in 24-well tissue culture dishes and labeled overnight with 2 uCi/ml [^3 H]myo-inositol (23 Ci/mmol) (New England Nuclear, Boston, Mass.) in inositol-free MEM-EBSS supplemented with 10% dialyzed FCS. Following labeling, the media were removed and the cells were incubated at room temperature for 5-10 min in 0.5 ml of serum-free MEM-EBSS media supplemented with 10 mM HEPES, 1 mg/ml BSA, and 10 mM LiCl. […] The incubation was terminated by removal of the incubation media and addition of 1 ml of ice-cold 20 mM formic acid. Plates were incubated at 4° C. for 30 min before the supernatants were applied to 1-ml Dowex AG1-X8 (100-200 mesh, formate form, from Sigma) chromatography columns. Columns were washed with 8 ml of water followed by 5 ml of 40 mM sodium formate. Total [^3 H]inositol phosphates were eluted with 5 ml of 2M ammonium formate/0.1M formic acid and quantitated by liquid scintillation spectroscopy. […]

[2] = test system: untransfected or pcDNA3 transfected 293 cell controls; test: cAMP formation in untransfected or pcDNA3 transfected 293 cell controls; format: cell-based, human; details: cells without receptor
[3] = test system: undifferentiated human HL-60 cells; test: MCP-1 induced calcium flux in HL-60 cells; format: cell-based; details: undifferentiated HL-60 cells
Experimental: as §1

Substance: monocyte chemoattractant protein-1 [MCP-1]
- selectivity for the MCP-1 receptor (MCP-1RB receptor): at least 9000 fold
- block of forskolin-induced increase of cAMP (MCP-1RB receptor; co-addition with forskolin): 78%
- reduction of basal cAMP accumulation (MCP-1RB receptor; no forskolin, p<0.01): 55%
- EC50 (MM6 cells; dose-dependent calcium flux, read-out: half maximal stimulation of calcium flux): 4 nM
- effect of prior exposure to the chemokine on the calcium response to the other chemokine (MM6 cells; label = chemokine given first, MCP-1 versus RANTES (or MIP-1α)): partially blocked
- MCP-1 induced calcium flux [1]: No calcium flux was detected
- EC50 for monocyte chemotaxis (monocyte): subnanomolar
- hydrolysis of PI (phosphatidylinositol) (MCP-1 receptor): little, if any
- effect on cAMP formation [2]: neither stimulated nor inhibited
- MCP-1 induced calcium flux [3]: No calcium flux was detected
